# System: 252836-082-R-J2-PDC tumor spheroids, viability
# Experiment: Anticancer human tumor 252836-082-R-J2-PDC patient-derived head and neck squamous cell carcinoma cell line growth inhibition [PI3K]
# Conditions: spheroids with HUVEC and MSC; for IC50: curve of first compound; for viability, T/C: stronger effect = lower value
# Source text: Combinatorial screen of targeted agents with the PI3K inhibitors inavolisib, alpelisib, duvelisib, and copanlisib in multi-cell type tumor spheroids
# A high-throughput screen of multi-cell type tumor spheroids was designed to identify active combinations of targeted small molecules and PI3K pathway inhibitors. Complex spheroids include a stromal component modeled by human endothelial cells (HUVEC) and fibroblasts modeled by human mesenchymal stem cells (MSCs). The concentration ranges selected for each drug and investigational agent were based upon clinically achievable concentrations if the clinical Cmax of the agent was known.
# Compounds. The drugs and investigational agents: inavolisib (NSC800729), alpelisib (NSC765974), duvelisib (NSC772469), copanlisib (NSC816437), ipatasertib (NSC767898), afuresertib (NSC778305), talazoparib (NSC767125), sapanisertib (NSC764658), selumetinib (NSC741078), tovorafenib (DAY101, NSC766906), vemurafenib (NSC761431), ravoxertinib (NSC781343), sotorasib (NSC818433), MRTX1133 (NSC 836407), abemaciclib (NSC 768073), palbociclib (NSC758247), venetoclax (NSC 766270), SY5609 (NSC837396), enzalutamide (NSC755605), and darolutamide (NSC825331), were obtained from the National Cancer Institute (NCI) Developmental Therapeutics Program Chemical Repository. The FDA-approved anticancer drug set is available from the NCI Developmental Therapeutics Program. […] The stock solutions were prepared in dimethyl sulfoxide (DMSO, Sigma-Aldrich, St. Louis, MO, cat. D2650) at 800-fold the tested concentration and stored at -70 degrees C prior to their use. All drugs and investigational agents were tested over a range starting from a high concentration at or near the clinical Cmax and decreasing in half-log increments. If the clinical Cmax for an agent had not been determined, the highest concentration tested was 10 microM.
# Cell Culture. All cells were maintained in an incubator at 37 degrees C and 5% CO2 with 95% humidity. The PDC lines were cultured according to standard operating procedures established by the NCI PDMR (https://pdmr.cancer.gov/sops/default.htm). All PDCs were thawed and cultured in Matrigel-coated flasks prepared with a working solution of 1X Ham's F-12 nutrient mix, without supplementation (Invitrogen, Waltham, MA, cat. 11765054), 100 U/mL penicillin-streptomycin (Invitrogen, cat. 15140122), and 2.5% Matrigel (Corning Inc., Corning, NY, cat. 354248) for the first three passages. The 354836-022-R-J1-PDC, 475296-252-R-J1-PDC, and 997726-040-R-J2-PDC lines were cultured in 6A media, which includes advanced DMEM/F-12 (Thermo Fisher Scientific, cat. 12634028), 10 mM HEPES (Thermo Fisher Scientific, cat. 15630080), 1X GlutaMAX supplement (Thermo Fisher Scientific, cat. 35050061), 0.1 mg/mL primocin (InvivoGen, San Diego, CA, cat. ant-pm-2), 10% defined fetal bovine serum, heat inactivated (HyClone Laboratories Inc., Logan, UT, cat. SH30070.03HI), 50% L-WRN conditioned media (ATCC, cat. CRL-3276), 1.25 mM N-Acetyl-L-cysteine (Sigma-Aldrich, cat. A9165), 10 mM nicotinamide (Sigma-Aldrich, cat. N0636), 1X B-27 supplement (Thermo Fisher Scientific, cat. 17504044), 1X N-2 supplement (Thermo Fisher Scientific, cat. 17502048), and 10 microM Y-27632 dihydrochloride (Tocris Bioscience, Bristol, United Kingdom, cat. 1254). The 624824-186-R-J2-PDC line was cultured in 6C/Colon 1B media, which includes all 6A media components plus 50 ng/mL human EGF recombinant protein (Thermo Fisher Scientific, cat. PHG0311). […]
# [1] = second compound 0.0316 µM, first compound 0.0316 µM
# [2] = second compound 0.0316 µM, first compound 0.1 µM
# [3] = second compound 0.0316 µM, first compound 0.316 µM
# [4] = second compound 0.0316 µM, first compound 1 µM
# [5] = second compound 0.0316 µM, first compound 3.16 µM
# [6] = second compound 0.0316 µM, first compound 10 µM
# [7] = second compound 0.1 µM, first compound 0.0316 µM
# [8] = second compound 0.1 µM, first compound 0.1 µM
# [9] = second compound 0.1 µM, first compound 0.316 µM
# [10] = second compound 0.1 µM, first compound 1 µM
# [11] = second compound 0.1 µM, first compound 3.16 µM
# [12] = second compound 0.1 µM, first compound 10 µM
# [13] = second compound 0.316 µM, first compound 0.0316 µM
# [14] = second compound 0.316 µM, first compound 0.1 µM
# [15] = second compound 0.316 µM, first compound 0.316 µM
# [16] = second compound 0.316 µM, first compound 1 µM
# [17] = second compound 0.316 µM, first compound 3.16 µM
# [18] = second compound 0.316 µM, first compound 10 µM
# [19] = second compound 1 µM, first compound 0.0316 µM
# [20] = second compound 1 µM, first compound 0.1 µM
# [21] = second compound 1 µM, first compound 0.316 µM
# [22] = second compound 1 µM, first compound 1 µM
# [23] = second compound 1 µM, first compound 3.16 µM
# [24] = second compound 1 µM, first compound 10 µM
# [25] = second compound 3.16 µM, first compound 0.0316 µM
# [26] = second compound 3.16 µM, first compound 0.1 µM
# [27] = second compound 3.16 µM, first compound 0.316 µM
# [28] = second compound 3.16 µM, first compound 1 µM
# [29] = second compound 3.16 µM, first compound 3.16 µM
# [30] = second compound 3.16 µM, first compound 10 µM
# [31] = second compound 10 µM, first compound 0.0316 µM
# [32] = second compound 10 µM, first compound 0.1 µM
# [33] = second compound 10 µM, first compound 0.316 µM
# [34] = second compound 10 µM, first compound 1 µM
# [35] = second compound 10 µM, first compound 3.16 µM
# [36] = second compound 10 µM, first compound 10 µM
# 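Also: spheroids exposed to agents for seven days before readout.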
# 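For viability, T/C in this document: percent of vehicle DMSO control viability so 100% = untreated growth.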
structure (smiles),measurement,setting,value
CC1(C)CCC(Nc2ncc(C(F)(F)F)c(-c3c[nH]c4c(P(C)(C)=O)c(C#N)ccc34)n2)CN1 (centres undefined) + Cc1nc(NC(=O)N2CCCC2C(N)=O)sc1-c1ccnc(C(C)(C)C(F)(F)F)c1,IC50,second compound 0.0316 µM,< 0.0316 µM
same,IC50,second compound 0.1 µM,< 0.0316 µM
same,IC50,second compound 0.316 µM,< 0.0316 µM
same,IC50,second compound 1 µM,< 0.0316 µM
same,IC50,second compound 3.16 µM,< 0.0316 µM
same,IC50,second compound 10 µM,< 0.0316 µM
same,"viability, T/C",[1],39.2%
same,"viability, T/C",[2],27.6%
same,"viability, T/C",[3],33.3%
same,"viability, T/C",[4],30.5%
same,"viability, T/C",[5],38.8%
same,"viability, T/C",[6],6.62%
same,"viability, T/C",[7],36.2%
same,"viability, T/C",[8],33.4%
same,"viability, T/C",[9],32.2%
same,"viability, T/C",[10],30.9%
same,"viability, T/C",[11],38.4%
same,"viability, T/C",[12],7.19%
same,"viability, T/C",[13],28.8%
same,"viability, T/C",[14],27.6%
same,"viability, T/C",[15],28.4%
same,"viability, T/C",[16],27.2%
same,"viability, T/C",[17],32.8%
same,"viability, T/C",[18],6.05%
same,"viability, T/C",[19],27.4%
same,"viability, T/C",[20],26.9%
same,"viability, T/C",[21],28.2%
same,"viability, T/C",[22],25.9%
same,"viability, T/C",[23],23.1%
same,"viability, T/C",[24],3.48%
same,"viability, T/C",[25],23.1%
same,"viability, T/C",[26],21.1%
same,"viability, T/C",[27],22.7%
same,"viability, T/C",[28],24%
same,"viability, T/C",[29],20.9%
same,"viability, T/C",[30],2.65%
same,"viability, T/C",[31],15.8%
same,"viability, T/C",[32],18.1%
same,"viability, T/C",[33],19.4%
same,"viability, T/C",[34],17.7%
same,"viability, T/C",[35],12.7%
same,"viability, T/C",[36],1.03%
C[C@@H](NC(=O)c1ncnc(N)c1Cl)c1ncc(C(=O)Nc2cc(C(F)(F)F)c(Cl)cn2)s1 + Cc1nc(NC(=O)N2CCCC2C(N)=O)sc1-c1ccnc(C(C)(C)C(F)(F)F)c1,IC50,second compound 0.0316 µM,> 10 µM
same,IC50,second compound 0.1 µM,> 10 µM
same,IC50,second compound 0.316 µM,> 10 µM
same,IC50,second compound 1 µM,> 10 µM
same,IC50,second compound 3.16 µM,< 0.0316 µM
same,IC50,second compound 10 µM,< 0.0316 µM
same,"viability, T/C",[1],95.5%
same,"viability, T/C",[2],84.1%
same,"viability, T/C",[3],88.9%
same,"viability, T/C",[4],81.2%
same,"viability, T/C",[5],76.9%
same,"viability, T/C",[6],82.5%
same,"viability, T/C",[7],79.7%
same,"viability, T/C",[8],70.8%
same,"viability, T/C",[9],85.2%
same,"viability, T/C",[10],74.1%
same,"viability, T/C",[11],85.9%
same,"viability, T/C",[12],74.1%
same,"viability, T/C",[13],72%
same,"viability, T/C",[14],79.2%
same,"viability, T/C",[15],69.8%
same,"viability, T/C",[16],78.4%
same,"viability, T/C",[17],74.7%
same,"viability, T/C",[18],69.7%
same,"viability, T/C",[19],58.6%
same,"viability, T/C",[20],62%
same,"viability, T/C",[21],61.9%
same,"viability, T/C",[22],54.9%
same,"viability, T/C",[23],61.3%
same,"viability, T/C",[24],50.8%
same,"viability, T/C",[25],40%
same,"viability, T/C",[26],48.6%
same,"viability, T/C",[27],43.2%
same,"viability, T/C",[28],42.5%
same,"viability, T/C",[29],42.4%
same,"viability, T/C",[30],42.9%
same,"viability, T/C",[31],35.2%
same,"viability, T/C",[32],39.6%
same,"viability, T/C",[33],35.2%
same,"viability, T/C",[34],30.6%
same,"viability, T/C",[35],23.4%
same,"viability, T/C",[36],12.6%

# From PubChem BioAssay AID1963985 (Molecular Pharmacology Branch, DTP, NCI, 2024)
